Assay results from patent US20030129629A1, “Methods and compositions for the identification, assessment, prevention, and therapy of human cancers” (Millennium Pharmaceuticals, Inc., priority 2000, published 2003).
Where “and” joins values, the source holds several entries; their conditions need not be identical. Equal values may be shown once. Read-outs that look alike come from different tables or passages of the source.

Test system: 60 cancer cell lines (NCI 60 cancer cell line series)
Test: NCI-DTP in vitro cancer screen, sulforhodamine B (SRB) growth inhibition, 48 hour exposure
Assay type: cell-based, human
Experimental: Cancer Cell Line Preparation. Sixty cancer cell lines were obtained from the National Cancer Institute Developmental Therapeutics Program (NCI-DTP). Procedures for growing cells and testing compounds have been described previously (Scudiero et al., Cancer Res. 1988, 48:4827-4833; Stinson et al., Anticancer Res.; Myers et al., Electrophoresis 1997, 18:647-653). Cells are plated on day 0 at a density individualized for each cell line so that they will generally be sub-confluent at the end of the assay period. On day 1, a compound is added in the format for a duplicate-well, 5-dose, ten-fold interval dose response study.
No-drug, no-cell and no-growth controls are included. On day 3 the cells are processed for staining with sulforhodamine B (SRB), which reflects the amount of cell mass present at the end of a 48 hour exposure to the test agent. From dose response curves based on the SRB data, various parameters can be determined. […] More precisely, the quantity used in the calculation to be described is the potency measure −log{GI50}.
Activity database (A). […] This subset of compounds was selected from the larger 23,000 compound database available from the DTP. The compounds were selected on the basis of their known mechanism of action and chemical structure. The average potency −log{GI50} was extracted from the comma-delimited text files available through the Web at http://www.nci.nih.gov/intra/lmp/jnwbio.html. Subsequently, these −log{GI50} values were inspected manually and classified as indicating either Low, Medium or High sensitivity to each compound.

O=C(O)CCCc1ccc(N(CCCl)CCCl)cc1 [Chlorambucil]
classification of cell line as Low(1), Medium(2), High(3) sensitivity to compound: 2 and 3 and 1 | classification of cell line as Low(1), Medium(2), High(3) sensitivity to compound (Breast BT-549 CL5013): 1 | classification of cell line as Low(1), Medium(2), High(3) sensitivity to compound (Breast HS-578T CL5006): 1 | classification of cell line as Low(1), Medium(2), High(3) sensitivity to compound (Breast MCF7(I) CL5001): 2 | classification of cell line as Low(1), Medium(2), High(3) sensitivity to compound (Breast MCF7/ADRr CL5002): 2 | classification of cell line as Low(1), Medium(2), High(3) sensitivity to compound (Breast MDA-MB-231 CL5005): 1 | classification of cell line as Low(1), Medium(2), High(3) sensitivity to compound (Breast MDA-MB-435 CL5011): 1 | classification of cell line as Low(1), Medium(2), High(3) sensitivity to compound (Breast MDA-N CL5012): 1 | classification of cell line as Low(1), Medium(2), High(3) sensitivity to compound (Breast T-47D CL5014): 2 | classification of cell line as Low(1), Medium(2), High(3) sensitivity to compound (Colon COLO-250 CL4010): 1 | classification of cell line as Low(1), Medium(2), High(3) sensitivity to compound (Colon HCC-2998 CL4002): 1 | classification of cell line as Low(1), Medium(2), High(3) sensitivity to compound (Colon HCT-15 CL4015): 2 | classification of cell line as Low(1), Medium(2), High(3) sensitivity to compound (Colon HCT-116 CL4003): 1 | classification of cell line as Low(1), Medium(2), High(3) sensitivity to compound (Colon HT29(I) CL4001): 1 | classification of cell line as Low(1), Medium(2), High(3) sensitivity to compound (Colon KM12 CL4017): 1 | classification of cell line as Low(1), Medium(2), High(3) sensitivity to compound (Colon SW-620 CL4009): 2 | classification of cell line as Low(1), Medium(2), High(3) sensitivity to compound (Leukemia CCRF-CEM(I) CL7003): 3 | classification of cell line as Low(1), Medium(2), High(3) sensitivity to compound (Leukemia HL-60(I) CL7008): 3 | classification of cell line as Low(1), Medium(2), High(3) sensitivity to compound (Leukemia K562(I) CL7005): 1 | classification of cell line as Low(1), Medium(2), High(3) sensitivity to compound (Leukemia MOLT-4 CL7006): 3 | classification of cell line as Low(1), Medium(2), High(3) sensitivity to compound (Leukemia RPMI-8226(I) CL7010): 2 | classification of cell line as Low(1), Medium(2), High(3) sensitivity to compound (Leukemia SR CL7019): 3 | classification of cell line as Low(1), Medium(2), High(3) sensitivity to compound (Melanoma LOX IMVI CL10001): 2 | classification of cell line as Low(1), Medium(2), High(3) sensitivity to compound (Melanoma M14 CL10014): 2 | classification of cell line as Low(1), Medium(2), High(3) sensitivity to compound (Melanoma MALME-3M CL10002): 2 | classification of cell line as Low(1), Medium(2), High(3) sensitivity to compound (Melanoma SK-MEL-2 CL10005): 1 | classification of cell line as Low(1), Medium(2), High(3) sensitivity to compound (Melanoma SK-MEL-5 CL10007): 2 | classification of cell line as Low(1), Medium(2), High(3) sensitivity to compound (Melanoma SK-MEL-28 CL10008): 1 | classification of cell line as Low(1), Medium(2), High(3) sensitivity to compound (Melanoma UACC-62 CL10020): 3 | classification of cell line as Low(1), Medium(2), High(3) sensitivity to compound (Melanoma UACC-257 CL10021): 2 | classification of cell line as Low(1), Medium(2), High(3) sensitivity to compound (NSCLC A549/ATCC CL1004): 2 | classification of cell line as Low(1), Medium(2), High(3) sensitivity to compound (NSCLC EKVX CL1008): 1 | classification of cell line as Low(1), Medium(2), High(3) sensitivity to compound (NSCLC HOP-62 CL1026): 2 | classification of cell line as Low(1), Medium(2), High(3) sensitivity to compound (NSCLC HOP-92 CL1029): 2 | sensitivity classification Low(1)/Medium(2)/High(3) (NSCLC NCI-H23(I) CL1001): 2 | classification of cell line as Low(1), Medium(2), High(3) sensitivity to compound (NSCLC NCI-H226 CL1013): 2 | sensitivity classification Low(1)/Medium(2)/High(3) (NSCLC NCI-H332M CL1017): 1 | sensitivity classification Low(1)/Medium(2)/High(3) (NSCLC NCI-H460 CL1021): 3 | sensitivity classification Low(1)/Medium(2)/High(3) (NSCLC NCI-H522 CL1003): 2 | sensitivity classification Low(1)/Medium(2)/High(3) (Ovarian IGROV1 CL6010): 1 | sensitivity classification Low(1)/Medium(2)/High(3) (Ovarian OVCAR-3 CL6001): 1 | sensitivity classification Low(1)/Medium(2)/High(3) (Ovarian OVCAR-4 CL6002): 1 | sensitivity classification Low(1)/Medium(2)/High(3) (Ovarian OVCAR-5 CL6003): 1 | sensitivity classification Low(1)/Medium(2)/High(3) (Ovarian OVCAR-8 CL6005): 2 | sensitivity classification Low(1)/Medium(2)/High(3) (Ovarian SK-OV-3 CL6011): 1 | sensitivity classification Low(1)/Medium(2)/High(3) (Prostate DU-145 CL11003): 2 | sensitivity classification Low(1)/Medium(2)/High(3) (Prostate PC-3(I) CL11001): 1 | sensitivity classification Low(1)/Medium(2)/High(3) (Renal 786-0 CL9018): 2 | sensitivity classification Low(1)/Medium(2)/High(3) (Renal A498 CL9013): 1 | sensitivity classification Low(1)/Medium(2)/High(3) (Renal ACHN CL9023): 3 | sensitivity classification Low(1)/Medium(2)/High(3) (Renal CAKI-1 CL9015): 3 | sensitivity classification Low(1)/Medium(2)/High(3) (Renal RXF-393 CL9016): 2 | sensitivity classification Low(1)/Medium(2)/High(3) (Renal SN12C CL9008): 2 | sensitivity classification Low(1)/Medium(2)/High(3) (Renal TK10 CL9024): 1 | sensitivity classification Low(1)/Medium(2)/High(3) (Renal UO-31 CL9004): 2
